{
  "source": "paper PMC9965520",
  "about": "“An Efficient Peptidomics Screening for Exogenous Substrates and Inhibitory Peptides of the Dipeptidase ACE from Milk Hydrolysate” (Pharmaceutics, 2023)",
  "key": {"ACE [1]": {"target": "T1, ACE (Oryctolagus cuniculus, UniProt P12822)", "T1 sequence (P12822 34-1310)": "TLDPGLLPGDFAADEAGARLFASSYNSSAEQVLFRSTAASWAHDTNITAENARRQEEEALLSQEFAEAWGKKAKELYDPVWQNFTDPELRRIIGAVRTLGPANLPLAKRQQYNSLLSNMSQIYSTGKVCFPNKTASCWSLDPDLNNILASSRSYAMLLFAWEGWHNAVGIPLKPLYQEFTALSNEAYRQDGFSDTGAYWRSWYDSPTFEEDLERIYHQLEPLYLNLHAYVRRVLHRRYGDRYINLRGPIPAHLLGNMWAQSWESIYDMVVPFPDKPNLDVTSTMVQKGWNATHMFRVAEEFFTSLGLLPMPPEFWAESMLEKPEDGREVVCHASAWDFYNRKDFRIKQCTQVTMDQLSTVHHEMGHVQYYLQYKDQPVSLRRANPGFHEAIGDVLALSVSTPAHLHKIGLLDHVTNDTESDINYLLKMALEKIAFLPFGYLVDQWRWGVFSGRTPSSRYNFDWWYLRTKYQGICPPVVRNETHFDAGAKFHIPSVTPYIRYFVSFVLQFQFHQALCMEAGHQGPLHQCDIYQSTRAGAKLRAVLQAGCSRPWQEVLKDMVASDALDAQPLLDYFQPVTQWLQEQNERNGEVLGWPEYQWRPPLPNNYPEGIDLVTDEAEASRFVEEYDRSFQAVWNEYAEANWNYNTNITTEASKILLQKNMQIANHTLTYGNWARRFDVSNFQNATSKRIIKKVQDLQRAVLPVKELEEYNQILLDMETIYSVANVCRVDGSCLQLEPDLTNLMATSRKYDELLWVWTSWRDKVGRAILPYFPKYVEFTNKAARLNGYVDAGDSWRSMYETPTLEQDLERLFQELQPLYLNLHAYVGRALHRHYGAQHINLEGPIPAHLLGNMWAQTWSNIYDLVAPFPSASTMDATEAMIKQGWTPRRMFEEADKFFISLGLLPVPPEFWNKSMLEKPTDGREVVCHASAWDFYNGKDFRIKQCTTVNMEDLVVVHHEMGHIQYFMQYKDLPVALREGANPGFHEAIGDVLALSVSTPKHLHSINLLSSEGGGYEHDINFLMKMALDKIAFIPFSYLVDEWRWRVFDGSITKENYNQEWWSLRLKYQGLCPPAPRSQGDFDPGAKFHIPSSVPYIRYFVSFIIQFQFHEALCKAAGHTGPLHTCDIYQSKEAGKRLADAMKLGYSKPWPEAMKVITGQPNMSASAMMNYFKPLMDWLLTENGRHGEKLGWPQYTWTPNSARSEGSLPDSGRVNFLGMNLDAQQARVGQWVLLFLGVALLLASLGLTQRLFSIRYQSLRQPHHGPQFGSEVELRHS", "assay": "ACE hydrolysis of synthetic substrate candidates monitored by LC-MS at different incubation times", "format": "in vitro ADME, rabbit", "set-up": "ACE (EC 3.4.15.1, 1 unit) from rabbit lungs; purchased Sigma Chemical Co. (St. Louis, MO, USA); host or cells: rabbit lungs (tissue-derived enzyme)", "settings": "37 °C; for Substrate content (%) 30min / Substrate content (%) 60min / Substrate content (%) 90min / Substrate content (%) 120min / Substrate content (%) 150min / Substrate content (%) 180min: synthetic peptide with ACE, RS% = As/(As+Ap)x100 from SIC peak areas, LC-MS", "experimental": "To confirm the reactivity of the identified peptide candidates towards ACE, the synthetic peptides were individually mixed with ACE and incubated at 37 °C for 3 h. The remaining peptide substrate and the resulting product were analyzed using LC-MS/MS. Meanwhile, the degradation rate of each peptide was monitored every 30 min using LC-MS. The percentage of the remaining substrate (RS%) at each time point was calculated as As/(As + Ap) 100%. In which, As is the selective ion chromatogram (SIC) peak area of remaining substrate and Ap is the peak area of the resulting product. The RS% was further compared with the D/H ratio obtained in Section 2.4."}, "ACE [2]": {"target": "T1, ACE", "settings": "Ang-I (1 μg) + peptide (1 μg), ACE 0.05 mU/µL, 200 mM borate buffer, 300 mM NaCl, pH 8.3, 37 °C, 3 h; RA% = AI/(AI+AII)x100, LC-MS SIC", "quoted_text": "To a mixture of Ang-I (1 μg) and peptide substrate (1 μg) in 50 µL of borate buffe (200 mM borate buffer, 300 mM NaCl, pH 8.3), 20 µL of ACE (0.05 mU/µL) was added. The mixture was incubated at 37 °C and monitored using LC-MS/MS at 1, 2, 3, 4, 6, and 10 h. The LC separation was performed on Syncronis C18 column (150 mm × 2.1 mm, 5 µm, Thermo Scientific) and eluted with the mobile phase A (5% ACN and 0.1% FA) and B (95% ACN and 0.1% FA) at a flow rate of 350 µL/min. The elution gradient was programmed as (i) 0–5 min, isocratic elution with 5% B; (ii) 5–20 min, linear gradient from 5% to 55% B; (iii) 20–22 min, linear gradient from 55% to 80% solution B; and finally (iv) 22–30 min, isocratic elution maintained at 80% solution B. The degradation of Ang-I and the formation of Ang-II were analyzed using selective ion chromatogram (SIC) on a triple quadrupole mass analyzer (TSQ, Thermo Scientific). The percentage of the remaining angiotensin I (RA%) at each time point was calculated as AI/(AI + AII) × 100%, where AI is the SIC peak area of remaining Ang-I and AII is the peak area of the resulting Ang-II."}, "ACE [3]": {"target": "T1, ACE", "assay": "ACE inhibitory (ACEI) assay with HHL as substrate, with and without ACE pre-incubation", "format": "biochemical, rabbit", "set-up": "ACE (EC 3.4.15.1, 1 unit) from rabbit lungs; purchased Sigma Chemical Co. (St. Louis, MO, USA); host or cells: rabbit lungs (tissue-derived enzyme)", "settings": "37 °C, HA by HPLC-UV 228 nm, mean ± SD, triplicate", "experimental": "The ACE inhibitory assay was performed based on the previous report with slight modification. […] The mixture was first incubated at 37 °C statically for 30 min, and then shaken at 200 rpm for another 30 min. The reaction was terminated using 60 µL of HCl (1 M). The hydrolyzed product of HHL, HA, was analyzed by HPLC (Hitachi Chromaster, Tokyo, Japan) equipped with a NUCLEODUR® C18 HTec column (4.6 mm × 250 mm; particle size 5 µm, Macherey-Nagel, Düren, Germany) and quantified by its chromatographic peak area. The mixture was separated using an isocratic elution with the solution containing 24% ACN and 0.1% TFA at a constant flow rate of 1 mL/min. The substrate and product were monitored using a UV-Vis detector at a wavelength of 228 nm. The ACEI activity (%) was calculated as shown below: ACEI activity (%) = [1 – (Ainhibitor/Ablank)] × 100% where Ainhibitor and Ablank were the resulting HA peak areas in the mixtures with and without inhibitors, respectively. Along with the peptide substrate’s ACEI activity, its IC50 value was also determined using a nonlinear regression between ACE inhibition (%), and the logarithm of inhibitor concentrations could be carried out with GraphPad Prism 5.0 (GraphPad Software, Inc., La Jolla, CA, USA)."}, "[4]": {"settings": "no ACE pre-incubation, 2.5 mM HHL, ACE 0.05 mU/µL, borate buffer, 30 min static + 30 min 200 rpm, read-out: IC50 (μM) (Regular Assay)"}, "[5]": {"settings": "peptide pre-incubated with ACE, then HHL assay, read-out: IC50 (μM) (Pre-Incubation)"}},
  "note": "Read-outs that look alike come from different tables or passages of the source. No end group written: not given here.",
  "data": [
    {"substance": "AYFYPELFR [AR-9]", "values": [
      {"measurement": "Substrate content (%) 30min", "setting": "ACE [1]", "value": 2.40, "unit": "%"},
      {"measurement": "Substrate content (%) 60min", "setting": "ACE [1]", "value": 1.59, "unit": "%"},
      {"measurement": "Substrate content (%) 90min", "setting": "ACE [1]", "value": 0.00, "unit": "%"},
      {"measurement": "Substrate content (%) 120min", "setting": "ACE [1]", "value": 0.00, "unit": "%"},
      {"measurement": "Substrate content (%) 150min", "setting": "ACE [1]", "value": 0.00, "unit": "%"},
      {"measurement": "Substrate content (%) 180min", "setting": "ACE [1]", "value": 0.00, "unit": "%"},
      {"measurement": "Ang-I remained (RA%) on co-incubation with peptide", "setting": "ACE [2]", "value": 73.9, "unit": "%"},
      {"measurement": "IC50", "setting": "ACE [3]; [4]", "value": "6.8 ± 0.23", "unit": "µM"},
      {"measurement": "IC50", "setting": "ACE [3]; [5]", "value": "25.3 ± 0.96", "unit": "µM"}
    ]},
    {"substance": "FFVAPFPEVF [FF-10]", "values": [
      {"measurement": "Hydrolysis of synthetic peptide by ACE (result in words)", "setting": "ACE [1]; synthetic peptide incubated with ACE, 3 h, LC-MS/MS", "value": "partially hydrolyzed"},
      {"measurement": "Substrate content (%) 30min", "setting": "ACE [1]", "value": 76.08, "unit": "%"},
      {"measurement": "Substrate content (%) 60min", "setting": "ACE [1]", "value": 49.76, "unit": "%"},
      {"measurement": "Substrate content (%) 90min", "setting": "ACE [1]", "value": 34.59, "unit": "%"},
      {"measurement": "Substrate content (%) 120min", "setting": "ACE [1]", "value": 32.31, "unit": "%"},
      {"measurement": "Substrate content (%) 150min", "setting": "ACE [1]", "value": 21.80, "unit": "%"},
      {"measurement": "Substrate content (%) 180min", "setting": "ACE [1]", "value": 14.21, "unit": "%"},
      {"measurement": "IC50", "setting": "ACE [3]; [4]", "value": "104 ± 2.47", "unit": "µM"},
      {"measurement": "IC50", "setting": "ACE [3]; [5]", "value": "44.6 ± 3.06", "unit": "µM"}
    ]},
    {"substance": "HLPLPLLQSW [HW-10]", "values": [
      {"measurement": "Substrate content (%) 30min", "setting": "ACE [1]", "value": 2.47, "unit": "%"},
      {"measurement": "Substrate content (%) 60min", "setting": "ACE [1]", "value": 0.00, "unit": "%"},
      {"measurement": "Substrate content (%) 90min", "setting": "ACE [1]", "value": 0.00, "unit": "%"},
      {"measurement": "Substrate content (%) 120min", "setting": "ACE [1]", "value": 0.00, "unit": "%"},
      {"measurement": "Substrate content (%) 150min", "setting": "ACE [1]", "value": 0.00, "unit": "%"},
      {"measurement": "Substrate content (%) 180min", "setting": "ACE [1]", "value": 0.00, "unit": "%"},
      {"measurement": "IC50", "setting": "ACE [3]; [4]", "value": "10.6 ± 0.17", "unit": "µM"},
      {"measurement": "IC50", "setting": "ACE [3]; [5]", "value": "17.8 ± 0.65", "unit": "µM"}
    ]},
    {"substance": "LHLPLPLL [LL-8]", "values": [
      {"measurement": "Substrate content (%) 30min", "setting": "ACE [1]", "value": 58.04, "unit": "%"},
      {"measurement": "Substrate content (%) 60min", "setting": "ACE [1]", "value": 37.06, "unit": "%"},
      {"measurement": "Substrate content (%) 90min", "setting": "ACE [1]", "value": 22.61, "unit": "%"},
      {"measurement": "Substrate content (%) 120min", "setting": "ACE [1]", "value": 11.41, "unit": "%"},
      {"measurement": "Substrate content (%) 150min", "setting": "ACE [1]", "value": 7.12, "unit": "%"},
      {"measurement": "Substrate content (%) 180min", "setting": "ACE [1]", "value": 6.82, "unit": "%"},
      {"measurement": "IC50", "setting": "ACE [3]; [4]", "value": "12.3 ± 0.37", "unit": "µM"},
      {"measurement": "IC50", "setting": "ACE [3]; [5]", "value": "71.9 ± 2.19", "unit": "µM"}
    ]},
    {"substance": "LVYPFPGPIHNSL [LL-13]", "values": [
      {"measurement": "Substrate content (%) 30min", "setting": "ACE [1]", "value": 7.80, "unit": "%"},
      {"measurement": "Substrate content (%) 60min", "setting": "ACE [1]", "value": 7.20, "unit": "%"},
      {"measurement": "Substrate content (%) 90min", "setting": "ACE [1]", "value": 6.25, "unit": "%"},
      {"measurement": "Substrate content (%) 120min", "setting": "ACE [1]", "value": 5.68, "unit": "%"},
      {"measurement": "Substrate content (%) 150min", "setting": "ACE [1]", "value": 2.64, "unit": "%"},
      {"measurement": "Substrate content (%) 180min", "setting": "ACE [1]", "value": 1.05, "unit": "%"},
      {"measurement": "IC50", "setting": "ACE [3]; [4]", "value": "38.9 ± 2.05", "unit": "µM"},
      {"measurement": "IC50", "setting": "ACE [3]; [5]", "value": "27.3 ± 2.16", "unit": "µM"}
    ]},
    {"substance": "YVPLGTQ [YQ-7]", "values": [
      {"measurement": "Substrate content (%) 30min", "setting": "ACE [1]", "value": 8.35, "unit": "%"},
      {"measurement": "Substrate content (%) 60min", "setting": "ACE [1]", "value": 7.02, "unit": "%"},
      {"measurement": "Substrate content (%) 90min", "setting": "ACE [1]", "value": 6.54, "unit": "%"},
      {"measurement": "Substrate content (%) 120min", "setting": "ACE [1]", "value": 6.41, "unit": "%"},
      {"measurement": "Substrate content (%) 150min", "setting": "ACE [1]", "value": 6.27, "unit": "%"},
      {"measurement": "Substrate content (%) 180min", "setting": "ACE [1]", "value": 5.83, "unit": "%"},
      {"measurement": "IC50", "setting": "ACE [3]; [4]", "value": "250 ± 7.9", "unit": "µM"},
      {"measurement": "IC50", "setting": "ACE [3]; [5]", "value": "189 ± 9.6", "unit": "µM"}
    ]}
  ]
}
